The results in this text go back to patent US4604378A, “Basic V1 -vasopressin antagonists” (SmithKline Beckman Corporation, priority 1984, dated 1986).

The target in assay [1] is T1, V2 -vasopressin receptors (Sus scrofa, UniProt P32307).
T1 construct: Medullary pig kidney tissue; from tissue; host or cells: medullary pig (hog) kidney tissue
Description: V2-vasopressin receptor binding, inhibition of 3H-LVP binding, medullary pig kidney tissue. Here is the method:
(§1) Antagonistic activity at the V1 -vasopressin receptors is determined in a protocol which measures the reversal of the vasopressin-induced contraction of rat thoracic aorta tissue. This is expressed as KB (nM) in the table below. Such anti-pressor activity is confirmed in a similar in vitro protocol using binding to the plasma membranes of rat liver. V2 -vasopressin antagonism is determined as receptor binding ability measured by inhibition of 3H-LVP binding (KB as nM), by inhibition of adenylate cyclase activation by vasopressin in the medullary tissue of hog kidneys (Ki as nM) or in vivo in the hydropenic rat protocol (ED300 μg/kg. These procedures are described in the literature: F. Stassen et al., J. Pharmacology and Experimental Therapeutics, 223 50 (1982); F. Stassen et al., lst International Conference on Diuretics, Miami, Fla., Mar. (1984). Antagonistic activity at oxytocin receptors is determined in the isolated rat uterus protocol: W. Sawyer, et al., Endocrinology 106 81 (1979); P. Melin, et al., J. of Endocrinology 88 173 (1981).
^a Medullary pig kidney tissue, […]

For another assay, the target named is T2, oxytocin receptors (Rattus norvegicus, UniProt P70536).
T2 construct: Rat uterus; from tissue; host or cells: isolated rat uterus
T2 sequence (P70536 1-388): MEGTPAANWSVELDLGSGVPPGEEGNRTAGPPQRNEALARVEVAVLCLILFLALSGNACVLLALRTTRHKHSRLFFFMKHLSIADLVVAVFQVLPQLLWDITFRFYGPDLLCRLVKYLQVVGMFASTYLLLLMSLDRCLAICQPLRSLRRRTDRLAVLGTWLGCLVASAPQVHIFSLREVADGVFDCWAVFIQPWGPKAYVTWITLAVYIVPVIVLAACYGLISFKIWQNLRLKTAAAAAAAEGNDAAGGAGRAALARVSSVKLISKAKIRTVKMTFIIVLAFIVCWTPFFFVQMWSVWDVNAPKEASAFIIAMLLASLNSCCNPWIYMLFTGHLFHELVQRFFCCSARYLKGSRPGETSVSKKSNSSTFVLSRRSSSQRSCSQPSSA
As to the kind of experiment: Isolated rat uterus protocol, oxytocin antagonism. The class given is cell-based. To be noted: read-out: Rat OXT KB. How it is done: as §1

Assay [2] deals with T3, V1 -vasopressin receptors (Rattus norvegicus, UniProt P30560).
T3 construct: Rat liver membrane; from tissue; host or cells: rat liver plasma membranes
T3 sequence (P30560 whole entry): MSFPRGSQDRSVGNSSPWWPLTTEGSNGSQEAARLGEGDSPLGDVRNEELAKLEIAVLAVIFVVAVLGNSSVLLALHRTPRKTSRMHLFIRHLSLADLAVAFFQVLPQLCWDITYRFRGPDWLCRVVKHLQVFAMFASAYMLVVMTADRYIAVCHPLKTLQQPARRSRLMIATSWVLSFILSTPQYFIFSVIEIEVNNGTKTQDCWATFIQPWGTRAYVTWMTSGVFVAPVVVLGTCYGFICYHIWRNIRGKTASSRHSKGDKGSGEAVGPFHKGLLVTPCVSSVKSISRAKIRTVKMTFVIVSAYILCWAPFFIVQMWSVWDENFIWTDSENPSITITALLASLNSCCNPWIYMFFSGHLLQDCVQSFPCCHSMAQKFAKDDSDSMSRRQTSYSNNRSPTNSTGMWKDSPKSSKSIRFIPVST
As to the kind of experiment: Reversal of vasopressin-induced contraction of rat thoracic aorta tissue. The class given is cell-based. To be noted: rat aortic ring tissue. Here is the method:
as §1
^c Rat aortic ring tissue, […]

*1 amine or outer side, *2 acyl side, *3 side chain or, on linkers, in order; H or OH if unused. Where a SMILES comes first, the peptide text is derived from it. Bridges are numbered along the chain shown (N, C = ends). [ ]: non-standard residue; d: D form. The star is where a group is joined. X1 = CC(C)(CC(=O)[*:1])S[*:2]; NH(CH2)4NH2 = NCCCCN*; Mpa = O=C(O)CCS

T1 sequence (P32307 whole entry): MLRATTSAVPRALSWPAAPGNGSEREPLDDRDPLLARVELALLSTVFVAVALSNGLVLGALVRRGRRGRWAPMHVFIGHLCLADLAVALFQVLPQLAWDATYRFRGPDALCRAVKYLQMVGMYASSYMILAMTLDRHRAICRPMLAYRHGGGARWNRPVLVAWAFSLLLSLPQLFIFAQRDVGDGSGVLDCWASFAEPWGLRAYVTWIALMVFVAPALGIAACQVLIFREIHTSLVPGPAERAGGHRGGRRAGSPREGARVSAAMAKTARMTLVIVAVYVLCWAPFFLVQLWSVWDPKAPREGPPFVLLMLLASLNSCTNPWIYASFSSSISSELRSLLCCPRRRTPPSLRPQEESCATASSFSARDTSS

Take `CCOc1ccc(C[C@@H]2NC(=O)CCSSC[C@@H](C(=O)N[C@@H](CCCNC(=N)N)C(N)=O)NC(=O)[C@H](CC(N)=O)NC(=O)[C@H]([C@@H](C)O)NC(=O)[C@H]([C@@H](C)CC)NC2=O)cc1` [E] ([Mpa]Y(Et)ITNCR-NH2; disulfide 1-6): the Kb stood at 1600 nM in assay [1] and 11.4 nM on oxytocin receptors.

`COc1ccc(C[C@@H]2NC(=O)CC(C)(C)SSC[C@@H](C(=O)N3CCC[C@H]3C(=O)NCCCCN)NC(=O)[C@H](CC(N)=O)NC(=O)[C@H](CCC(N)=O)NC(=O)[C@H](Cc3ccccc3)NC2=O)cc1` [A] (Y(Me)FQNCP-{NH(CH2)4NH2}; linker N-5 via X1): the Kb in assay [1] was 8600 nM; in assay [2], 1.21 nM; on oxytocin receptors, 5.91 nM.

As to `CCOc1ccc(C[C@@H]2NC(=O)CCSSC[C@@H](C(=O)N[C@@H](CCCNC(=N)N)C(=O)NCC(N)=O)NC(=O)[C@H](CC(N)=O)NC(=O)[C@H]([C@@H](C)O)NC(=O)[C@H]([C@@H](C)CC)NC2=O)cc1` [D] ([Mpa]Y(Et)ITNCRG-NH2; disulfide 1-6), the Kb in assay [1] was determined as 4100 nM; at oxytocin receptors, 17.7 nM.

With `CCOc1ccc(C[C@H]2NC(=O)CCSSC[C@@H](C(=O)N3CCC[C@H]3C(=O)NCCCCN)NC(=O)[C@H](CC(N)=O)NC(=O)[C@H]([C@@H](C)O)NC(=O)[C@H]([C@@H](C)CC)NC2=O)cc1` [C] ([Mpa][dY](Et)ITNCP-{NH(CH2)4NH2}; disulfide 1-6), the Kb in assay [1] amounted to 5700 nM; on oxytocin receptors, 1.6 nM.
